Data from publication PMC9133036 (Nature Communications, 2022).
“And” between values parts separate entries of the source, which are not always exact repeats. Identical values can stand only once.

Legend:
Type in all cases: cell-based
[1] = target: T1, OX2R T111S (Homo sapiens, UniProt O43614, T111S); assay: IP accumulation assay, OX2R T111S
T1 construct: FLAG; expressed in transfected cells; host or cells: HEK293
T1 sequence (O43614 1-444 T111S): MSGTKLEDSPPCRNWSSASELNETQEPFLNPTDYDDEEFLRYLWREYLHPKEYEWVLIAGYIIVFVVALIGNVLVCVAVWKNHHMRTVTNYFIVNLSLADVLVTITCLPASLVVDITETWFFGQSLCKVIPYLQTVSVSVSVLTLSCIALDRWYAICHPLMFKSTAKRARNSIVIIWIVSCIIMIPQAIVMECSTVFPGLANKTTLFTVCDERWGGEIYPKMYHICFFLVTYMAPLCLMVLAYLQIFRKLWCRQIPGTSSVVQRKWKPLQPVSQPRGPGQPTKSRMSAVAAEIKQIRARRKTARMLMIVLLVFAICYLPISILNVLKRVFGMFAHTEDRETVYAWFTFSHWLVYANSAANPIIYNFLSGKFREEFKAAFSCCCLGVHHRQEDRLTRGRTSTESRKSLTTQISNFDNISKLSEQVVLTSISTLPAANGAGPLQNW
Source text: The IP assay was adapted from a prior precedent. HEK293 cells were maintained in DMEM-high glucose (Millipore Sigma) supplemented with 5% fetal bovine serum (Corning) and penicillin-streptomycin (Millipore Sigma). Receptor constructs used were the full-length wild-type (or mutant) human OX1R and OX2R sequences cloned into pCDNA3. To enhance the Emax in the IP assay, a plasmid encoding full-length human Gαq subunit[66] was co-transfected into HEK293 cells with plasmids encoding orexin receptor constructs using Lipofectamine 3000 (Thermo Fisher). 24 h after transfection, the cells were plated on poly-D-lysine coated (Millipore Sigma) tissue culture-treated 96 well white plates with clear bottoms (Perkin Elmer) at 30,000 cells per well in Inositol-free DMEM (MP Biomedicals) supplemented with 5% fetal bovine serum, 4 mM L-glutamine (Millipore Sigma), penicillin-streptomycin, and about 5 uCi (5 ul) per ml myo-[2-3H] inositol (Perkin Elmer). The following day, the media was replaced with agonists that were diluted in HBSS (Millipore Sigma) containing 10 mM lithium chloride (Millipore Sigma) and incubated at 37 °C for 45 min. Then agonists were removed and cells were lysed on ice for 30 min with 10 mM formic acid (Millipore Sigma). 1.25 mg of poly-lysine coated YSI SPA beads (Perkin Elmer) was added to each well. The plates were mixed on an orbital shaker for 30 min. The plates were read on a MicroBeta scintillation counter (Perkin Elmer) the following day. IP accumulation assays on different constructs were performed in n ≥ 3 independent experiments (each done in duplicate), where n is shown in Supplementary Table 2.

[2] = target: T2, OX2R F228A (Homo sapiens, UniProt O43614, F228A); assay: β-arrestin PathHunter assay, OX2R F228A; conditions: β-arrestin recruitment
T2 construct: expressed in transfected cells; host or cells: CHO-K1 stably expressing EA β-arrestin2
T2 sequence (O43614 whole entry F228A): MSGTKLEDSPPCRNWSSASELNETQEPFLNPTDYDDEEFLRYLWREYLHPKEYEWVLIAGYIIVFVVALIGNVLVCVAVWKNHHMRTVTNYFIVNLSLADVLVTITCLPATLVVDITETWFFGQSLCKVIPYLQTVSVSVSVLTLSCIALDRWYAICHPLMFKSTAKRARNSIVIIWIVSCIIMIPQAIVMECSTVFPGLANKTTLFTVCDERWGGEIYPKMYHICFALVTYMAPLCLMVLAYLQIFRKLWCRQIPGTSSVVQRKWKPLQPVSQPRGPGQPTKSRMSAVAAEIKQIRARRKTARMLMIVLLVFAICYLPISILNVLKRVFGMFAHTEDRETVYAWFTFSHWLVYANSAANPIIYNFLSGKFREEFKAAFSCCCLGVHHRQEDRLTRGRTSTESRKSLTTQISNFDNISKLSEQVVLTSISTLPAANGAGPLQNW
Description: (§1) β-Arrestin recruitment activity was measured by using the PathHunter system (DiscoveRX) according to the manufacturer’s instruction. Receptor constructs used were the full-length wild-type (or mutant) human OX2R sequences cloned into pCMV-ProLink (DiscoveRX). CHO-K1 cells stably expressing EA β-arrestin2 (DiscoveRX) were plated on 384 well white plates (Thermo Fisher) at 4000 cells/well in HamF12 (Wako Pure Chemical Industries) supplemented with 10% fetal bovine serum (Corning) and penicillin-streptomycin (Wako Pure Chemical Industries) and incubated overnight at 37 °C under 5% CO2. Cells were transfected with plasmids encoding wild type or each mutant ProLink-tagged human OX2R using FuGENE HD (Promega). […] Detection reagent was added and incubated for 1 h at room temperature. Luminescent signal was detected using an EnVision plate reader (PerkinElmer). β-arrestin assays on different constructs were performed in two or three independent experiments (each done in quadruplicate). Dose response curves (shown in Supplementary Fig. 8) were fitted to the three-parameter model ‘log(agonist) vs response’ in GraphPad Prism to determine pEC50 values.

[3] = target: T3, OX2R V353A (Homo sapiens, UniProt O43614, V353A); assay: β-arrestin PathHunter assay, OX2R V353A; conditions: β-arrestin recruitment
T3 construct: expressed in transfected cells; host or cells: CHO-K1 cells stably expressing EA β-arrestin2 (DiscoveRX), transiently transfected with pCMV-ProLink OX2R
T3 sequence (O43614 whole entry V353A): as the sequence (O43614 whole entry F228A) above, with A228F, V353A counted along it
T3 sequence (P32121 whole entry partner): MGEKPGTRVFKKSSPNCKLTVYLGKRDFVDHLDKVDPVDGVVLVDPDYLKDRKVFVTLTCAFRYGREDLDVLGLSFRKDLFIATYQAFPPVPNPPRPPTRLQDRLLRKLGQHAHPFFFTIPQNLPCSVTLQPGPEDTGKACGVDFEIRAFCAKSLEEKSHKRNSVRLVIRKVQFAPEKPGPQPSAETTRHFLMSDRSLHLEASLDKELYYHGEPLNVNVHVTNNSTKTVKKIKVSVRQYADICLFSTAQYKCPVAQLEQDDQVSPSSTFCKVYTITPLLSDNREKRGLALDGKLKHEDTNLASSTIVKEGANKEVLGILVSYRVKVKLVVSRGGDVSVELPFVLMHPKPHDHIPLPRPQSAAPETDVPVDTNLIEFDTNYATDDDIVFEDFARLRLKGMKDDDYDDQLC
Description: as §1

EC50 ([1]; IP accumulation): 230 nM
% IP accumulation ([1]; TAK-925 conc (log, M) -4.00, normalized to OX2R WT Emax): 70.98% and 87.26% and 72.84%
% IP accumulation ([1]; TAK-925 conc (log, M) -4.48): 81.25% and 84.62% and 46.26%
% IP accumulation ([1]; TAK-925 conc (log, M) -4.95): 89.34% and 80.76% and 67.67%
% IP accumulation ([1]; TAK-925 conc (log, M) -5.43): 71.72% and 74.73% and 72.02%
% IP accumulation ([1]; TAK-925 conc (log, M) -5.91): 64.42% and 69.82% and 64.34%
% IP accumulation ([1]; TAK-925 conc (log, M) -6.39): 51.66% and 41.45% and 43.47%
% IP accumulation ([1]; TAK-925 conc (log, M) -6.86): 34.40% and 35.79% and 28.55%
% IP accumulation ([1]; TAK-925 conc (log, M) -7.34): 18.97% and 17.10% and 14.95%
% IP accumulation ([1]; TAK-925 conc (log, M) -7.82): 8.44% and 12.15% and 9.41%
% IP accumulation ([1]; TAK-925 conc (log, M) -8.29): 4.76% and 0.00% and 2.26%
% IP accumulation ([1]; TAK-925 conc (log, M) -8.77): 0.00% and 8.93%
Emax ([1]; relative to OX2R WT/TAK-925): 76
EC50 [2]: 600 nM
EC50 [3]: 5500 nM
SMILES: COC(=O)N1CCC[C@H](NS(C)(=O)=O)[C@@H]1CO[C@H]1CC[C@@H](c2ccccc2)CC1 [TAK-925, methyl (2R,3S)−3-[(methylsulfonyl)amino]−2-{[(cis−4-phenylcyclohexyl)oxy]methyl}piperidine-1-carboxylate]
